No end group written: not given here.
Columns and labels:
[1] = Phase 1 study in healthy volunteers, safety (SAD and MAD phases); type: in vivo, human
From the text: Clinical experience with RIVPA (SEQ ID NO. 5) was obtained in a Phase 1 Study. The primary objective of the study was to determine the maximum tolerated dose (MTD) of single and repeat ascending doses of RIVPA (SEQ ID NO. 5) injectable solution following IV administration in healthy volunteers. The secondary objectives of this study included the assessment of the dose limiting toxicity (DLT), safety, PK and pharmacodynamic (PD) profiles of RIVPA (SEQ ID NO. 5) after single and repeated ascending IV doses of RIVPA (SEQ ID NO. 5). The study was divided into 2 phases: a single-ascending dose (SAD) phase and a multiple-ascending dose (MAD) phase.
Single IV doses of RIVPA (SEQ ID NO. 5) were well tolerated up to the maximum tested (8 mg/kg) and daily IV doses were well tolerated up to the maximum tested (6.5 mg/kg for 7 days). There were no dose limiting toxicities (DLTs) and the MTD was not reached in either phase of the trial. There were no deaths and no clinically significant, severe, or serious Adverse Events (AEs) reported during the study.
The most frequently reported TEAEs (observed in more than one subject who received RIVPA (SEQ ID NO. 5) and in a higher proportion (%) than placebo subjects) were study treatment procedure-related events (General Disorders and Administration Site Conditions) such as vessel puncture site haematoma, vessel puncture site reaction and vessel puncture site pain. All vessel puncture-related events were mild and determined to be unrelated to study treatment by the QI. The second most frequently reported TEAEs were Nervous System Disorders, specifically headache and dizziness; these events were only mild to moderate. All other TEAEs were reported by only 1 subject at any given dose level (maximum of 3 dose levels).
The incidence of “possibly-related” events was also higher in the 2 highest dose levels. However, due to the small sample sizes (4 subjects received active treatment in each cohort), it was not possible to conclude whether the results definitely represented a dose-response. The majority of the TEAEs were not related to study treatment and were mild in severity with only one event reported as moderate. The most frequently reported TEAEs for subjects who received RIVPA (SEQ ID NO. 5) were General Disorders and Administration Site Conditions (i.e., procedure-related events) such as vessel puncture site haematoma, vessel puncture site reaction, and vessel puncture site pain. All vessel puncture-related events were mild and judged to be unrelated to treatment. Increased alanine aminotransferase (ALT) and back pain were reported by 3 (15.0%) subjects who received RIVPA (SEQ ID NO. 5) and these events were observed by only one (10.0%) subject who received the placebo.

[2] = tested on: mouse normal blood cells; assay: proliferation of normal blood cells in vitro (mouse); type: cell-based
[3] = acute toxicity (respiratory depression) dose levels, mouse; type: in vivo
Experimental: The observed respiratory depression occurred at different dose levels in different species, and was not predicted by allometric scaling. In particular, the mouse appeared to be the most sensitive species with acute toxicity occurring rarely at 60 mg/kg (HED: ˜5 mg/kg) and commonly at 90 mg/kg (HED: ˜7 mg/kg). In contrast in NHP (cynomologus monkey), acute toxicity occurred occasionally at 160 mg/kg (HED: ˜50 mg/kg) and consistently at 240 mg/kg (HED: ˜78 mg/kg).

[4] = biological target: Sequestosome-1, also known as p62 (Homo sapiens, UniProt Q13501); details: cited from earlier work
[5] = tested on: macrophage activation syndrome model; assay: CpG (TLR-9 agonist) induced model of macrophage activation syndrome; type: in vivo, C57BL/6 mice
Experimental: Macrophage activation syndrome was simulated in 8-10 week old C57BL/6 mice by repeated administration of the TLR-9 agonist, CpG. CpG (35 μg in 200 μL) or Saline was administered intraperitoneally (IP) on days 0, 2, 4, 7 and 9. SGX94 (200 mg/kg IP) or Saline was administered on days 1, 4 and 7. […] In a repeat study, the same model was used to test administration of saline (Days 1, 4 and 7; control); RIVPA (SEQ ID NO. 5) at 200 mg/kg administered on Days 1, 4 and 7, 400 mg/kg administered on Day 1, 4 and 7 and 400 mg/kg administered on Days 1; 3, 5 and 7. In this experiment CpG (35 μg) was administered on days 0, 2, 4, 7 and 10 and no saline-stimulated controls were used.

[6] = Day 8, 200 mg/kg IP days 1, 4 and 7, relative to CpG stimulated, saline treated group
[7] = Day 10, serum, 200 mg/kg IP, first study
[8] = repeat study, 200 mg/kg Days 1, 4, 7, 400 mg/kg Days 1, 4, 7, 400 mg/kg Days 1, 3, 5, 7

Sequestosome-1, also known as p62, sequence (Q13501 whole entry): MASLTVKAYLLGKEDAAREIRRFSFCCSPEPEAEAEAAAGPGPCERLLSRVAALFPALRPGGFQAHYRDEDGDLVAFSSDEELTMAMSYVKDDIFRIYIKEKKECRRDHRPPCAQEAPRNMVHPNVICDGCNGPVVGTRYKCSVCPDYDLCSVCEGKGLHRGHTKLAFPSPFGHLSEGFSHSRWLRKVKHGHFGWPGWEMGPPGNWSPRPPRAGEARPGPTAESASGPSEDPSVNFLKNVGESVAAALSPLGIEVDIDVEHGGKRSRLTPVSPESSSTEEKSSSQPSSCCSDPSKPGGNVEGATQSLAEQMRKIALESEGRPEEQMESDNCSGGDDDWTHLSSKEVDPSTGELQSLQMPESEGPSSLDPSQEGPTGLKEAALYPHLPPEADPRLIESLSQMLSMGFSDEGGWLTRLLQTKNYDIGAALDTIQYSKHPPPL

RIVPA-NH2 [RIVPA, L-arginyl-L-isoleucyl-L-valyl-L-prolyl-L-alanine-amide]
subjects reporting increased alanine aminotransferase (ALT) and back pain ([1]; MAD phase, placebo one (10.0%) subject): 3 (15.0%) subjects
MTD in humans ([1]; either phase of the trial, no DLTs): not reached
single IV dose well tolerated up to the maximum tested ([1]; healthy volunteers, SAD phase): 8 mg/kg
daily IV dose well tolerated up to the maximum tested ([1]; healthy volunteers, daily for 7 days, MAD phase): 6.5 mg/kg
proliferation of mouse normal blood cells [2]: did not promote the proliferation
HED of dose at which acute toxicity occurs rarely ([3]; mouse 60 mg/kg): ~5 mg/kg
HED of dose at which acute toxicity occurs commonly ([3]; mouse 90 mg/kg): ~7 mg/kg
binding to p62 [4]: binds
platelet counts [5, 6]: increased
white blood cell counts [5, 6]: significantly increased
body weights ([5]; Day 10, 200 mg/kg IP, relative to CpG stimulated, saline-treated group): increased
IFNγ levels [5, 7]: not significantly altered
IL-10 levels [5, 7]: not significantly altered
IL-12 levels ([5]; Day 10, serum, 200 mg/kg IP, relative to CpG stimulated, saline-treated group): decreased
changes in saline stimulated, RIVPA treated group ([5]; relative to saline stimulated, saline treated control): no significant changes
IFNγ levels ([5]; repeat study): no significant changes
platelet count [5, 8]: statistically significant increase
white blood cell count [5, 8]: statistically significant increase

Source: US20150148304A1, “Novel Peptides and Analogs for Use in the Treatment of Macrophage Activation Syndrome” (Soligenix, Inc., priority 2013, published 2015)
